The text below walks through data of patent publication US20220016154A1, “TREATMENT OF NEURONAL MOSAICISM IN DEMENTIA” (Crownview Medical Group, Inc., priority 2020, published 2022).

The test system of experiment [1] is HIV-associated dementia. The note with it: HIV patients, antiretroviral therapy; cited from earlier work.
The test system of experiment [2] is patient with advanced dementia. Description: Case report: dementia patient administered a regimen of ZDV (Retrovir), clinical observation and SMMSE. The format is in vivo, human. The settings on record: one patient, SMMSE 2 to 4 before treatment; after 8 weeks of treatment.

Regarding `Cc1cn([C@H]2C[C@H](N=[N+]=[N-])[C@@H](CO)O2)c(=O)[nH]c1=O` [Zidovudine], the “progression of HIV-associated dementia” value in experiment [1] was “slowed”. Moreover, in experiment [2], the SMMSE scores result is given as “not consistently improved”; the “ability to remember and communicate about where they lived” value was “specific improvements in their ability to remember and communicate about where they lived”; the “alertness and awareness of surroundings” value is “more alert and aware of their surroundings”.
